Patent US20250204541A1, “GAS PHASE TREATMENT OF PRODUCE” (priority 2022, published 2025)

Key:
[1] = tested on: avocados; assay type: in vivo
Experimental: Example 11. The ripening characteristics of avocados exposed to AITC vapor was analyzed. Treatment groups consisted of avocados that were: exposed to the vapor of 125 μL of AITC in a Petri dish for 30 min and 18 hours; exposed to the vapor of 500 μL of AITC for 30 minutes and 18 hours; untreated and kept 18 hours in a bin; and treated with a coating agent. Two sets of the preceding test groups were studied. One set was treated when cold along with coated fruit (i.e., fruit treated with a coating agent (95 wt % glyceryl monostearate and 5 wt % sodium stearate) and another set was treated when warm (one day out of cold storage). Daily measurements were made of respiration and firmness (using a durometer). At the start of the test, the avocados were placed in cold storage. After one day, the cold treated avocados were treated with AITC directly after removal from cold storage. The coated group was treated at this time. The warm treated avocados were allowed to warm to room temperature. On the second day, measurements were begun on the cold treated avocados and AITC treatments began on the warm treated samples. On the third day, measurements began on the warm treated groups. […]
Example 23: The ripening characteristics of avocados exposed to AITC vapor, a coating agent (95 wt % glyceryl monostearate and 5 wt % sodium stearate), and AITC plus the coating agent was analyzed. […]

[2] = tested on: avocados; assay: Durometer shore (ripening/firmness) of treated avocados; assay type: in vivo; settings: for average increase of durometer shore over the uninfected and untreated avocados: Example 22
Experimental: Example 9. The antifungal activity of a range of AITC and carvacrol vapor exposure times was tested against Cg in avocados. To measure the effect of the various treatments on ripening, durometer shore was taken after 7 days of incubation at ambient temperature and high humidity. All samples were wounded by removing the stem and infected by dispensing 1000 Cg spores suspended in 10 μL of water in the wound. The test groups consisted of avocados that were: infected and left untreated on the benchtop; infected and left untreated under a fume hood; exposed to the vapor of 3 mL of AITC in a Petri dish for 24 hours, 48 hours, and 72 hours; and exposed to the vapor of 3 mL of carvacrol in a Petri dish for 72 hours. FIG. 11 quantifies the infection results. […] All exposure times to AITC vapor reduced the incidence of Cg mold compared to the untreated samples. A 24 hour AITC exposure reduced the incidence of Cg mold by 90%. A 48 hour AITC exposure reduced the incidence of Cg mold by 97%. A 72 hour AITC exposure reduced the incidence of Cg mold by 83%.
Example 10. The antifungal activity of a range of AITC vapor exposure times were tested against Cg in avocados. To measure the effect of the various treatments on ripening, durometer shore was taken after 6 days of incubation at ambient temperature and high humidity. All samples were wounded by removing the stem and infected by dispensing 1000 Cg spores suspended in 10 μL of water in each wound. The test groups consisted of avocados that were: infected and left untreated on the benchtop; infected and left untreated in a fume hood; exposed to the vapor of 3 mL of AITC in a Petri dish for 24 hours, 48 hours, and 72 hours. FIG. 13 quantifies the infection results. […] All exposure times to AITC vapor reduced the incidence of Cg mold compared to the untreated samples.
Example 21. The antifungal activity of avocados exposed to AITC vapor and prochloraz was tested against Cg in avocados. To measure the effect of the various treatments on ripening, durometer shore was taken after 5 days of incubation at ambient temperature (about 20° C. to about 25° C.) and high humidity (about 88% relative humidity to about 93% relative humidity). All samples were wounded by removing the stem and infected by dispensing 1000 Cg spores suspended in 10 μL of water in the wound. Exposure to vapor was done by placing the avocados in an airtight container, dispensing AITC onto Whatman filter paper discs, suspending the discs in front of a battery-powered fan, closing the container and incubating the avocados for 30 minutes. After vapor exposure, the avocados were left at ambient temperature, high humidity, and assessed for Cg mold on day 5. Treatment groups consisted of avocados that were: exposed for 30 minutes to the vapor of 125 μL of AITC disposed on a filter paper disc; dipped in a solution of 0.1 g/L of prochloraz and placed to dry on a rack in front of a fan for 30 min; infected and left untreated; and uninfected and untreated. […] To prepare the 0.1 g/L of prochloraz, 10 mg of prochloraz was mixed with 10 mL of ethanol and 90 mL of water. […] A 24 hour AITC exposure reduced the incidence of Cg mold by 90%. […] The mean shore value for the untreated avocados was 28.8 (standard deviation (SD)=10.8). The mean shore value for the infected avocados was 47.3 (SD=11.8). The mean shore value of the positive control, prochloraz treated avocados was 44.3 (SD=14.7). The mean shore value of the AITC treated avocados was 61.1 (SD=10.5).
Durometer Shore Measurement: A Fruit Hardness Tester—HPE III Fff w/Sphere Ø 5.0 mm Test Anvil is used for the measurements. The Operating Procedure is as follows: • 1) At room temperature and 1 atm pressure, switch on the measuring device and press the hull or sleeve against the specimen so that the contact surface of the pressure plate rests on the fruit. […]

With `C=CCN=C=S` [AITC, allyl isothiocyanate] the “quality and defects of treated avocados” value ([1]; Example 23, avocados, vapor of 500 μL, 11 days of incubation) was “higher quality and had fewer defects than the untreated avocados and the avocados treated with the coating agent alone”, the “effect on avocado peel and firmness” value ([1]; in vivo) was “darkening and thickening of the avocado peel and a prolonged feeling a firmness” and the “average increase of durometer shore over the untreated avocados” value ([2]; Example 9, Cg-infected avocados, all AITC treatments (3 mL, 24, 48, 72 hours), after 7 days, P value<0.0001) was 20.3 shore. The “average increase of durometer shore over the infected avocados” value ([2]; Example 10, Cg-infected avocados, all AITC treatments (3 mL, 24, 48, 72 hours), after 6 days, P value<0.005) was 15.4 shore, the “higher durometer shore than the untreated avocados” value ([2]; Example 21, Cg-infected avocados, 125 μL, 30 minutes, after 5 days) was “more than 30 shore” and the mean shore value ([2]; Example 21, Cg-infected avocados, after 5 days, AITC 125 μL vapor 30 minutes, prochloraz 0.1 g/L dip) was 61.1 (SD=10.5) shore. The “average increase of durometer shore over the uninfected and untreated avocados” value ([2]; Cg-infected avocados, 250 μL, 30 minutes, after 5 days, P value=0.0016) was “about 10 shore”, the “average increase of durometer shore over the uninfected and untreated avocados” value ([2]; Cg-infected avocados, 500 μL, 30 minutes, after 5 days, P value<0.0001) was “about 28.5 shore” and the “average increase of durometer shore over the untreated avocados” value ([2]; Example 23, avocados, after 11 days, coating agent 40 g/L dip, AITC vapor of 500 μL, P value<0.0001) was 22.5 shore.
